We go through 18 molecules from patent publication US8952181B2, “Organic semiconductive material precursor containing dithienobenzodithiophene derivative, ink, insulating member, charge-transporting member, and organic electronic device” (Ricoh Company, Ltd., priority 2010, dated 2015).

SMILES strings stand for the structures.

Data set [1] is described as follows: TG-DTA thermal analysis (elimination of X-Y on heating). The format is physicochemical. The following applies: temperature increase rate 5° C./min. The procedure:
A TG-DTA measurement with respect to Example Compound 1 was performed using TG/DTA200 (manufactured by Seiko Instruments is Inc.). […] This was identical with the melting point of the following Example Compound 1-2 described in Japanese Patent Application Laid-Open (JP-A) No. 2011-44686.

Data set [2] in a line: Solubility in organic solvents. The format is physicochemical. How it is done:
The solubility test of Example Compound 1-2 of Example 1 was performed by dissolving Example Compound 1-2 respectively in THF, chloroform, toluene, xylene, mesitylene, diethyl ether, dichloromethane, and ethanol. Example Compound 1-2 was not dissolved in any of the above-described solvents, and cannot form a film by various printing methods.

[3] abbreviates: solvent such as THF, toluene, chloroform, xylene, diethyl ether, or dichloromethane.

`CCCCCCc1ccc(CC(OC(C)=O)c2cc3sc4cc5c(cc4c3s2)sc2cc(C(Cc3ccc(CCCCCC)cc3)OC(C)=O)sc25)cc1` (centres unmarked) [Example Compound 6]: in data set [1], the “mass reduction, found value” came out at 15.1%. Take `CCCCCC(=O)OC(Cc1ccccc1)c1cc2sc3cc4c(cc3c2s1)sc1cc(C(Cc2ccccc2)OC(=O)CCCCC)sc14` (centres unmarked) [Example Compound 2]: the “mass reduction, found value” in data set [1] was determined as 31.4%. Besides, in data set [2] (setting [3]), the solubility in solvent result is listed as “easily dissolved”. As to `CCCCCCc1ccc(CC(O)c2cc3sc4cc5c(cc4c3s2)sc2cc(C(O)Cc3ccc(CCCCCC)cc3)sc25)cc1` (centres unmarked) [Example Compound 7], the “mass reduction, found value” in data set [1] came to 4.0%. Take `CCCCCC(=O)OC(Cc1ccc(-c2ccc(C)cc2)cc1)c1cc2sc3cc4c(cc3c2s1)sc1cc(C(Cc2ccc(-c3ccc(C)cc3)cc2)OC(=O)CCCCC)sc14` (centres unmarked) [Example Compound 18]: in data set [1], the “mass reduction, found value” is on record as 24.2%. Also, in data set [2] (setting [3]), the solubility in solvent entry is recorded as “easily dissolved”. `C(=C\c1cc2sc3cc4c(cc3c2s1)sc1cc(/C=C/c2ccccc2)sc14)/c1ccccc1` [Example Compound 1-2]: the solubility test entry in data set [2] (THF, chloroform, toluene, xylene, mesitylene, diethyl ether, dichloromethane, and ethanol) was “not dissolved”. Take `CSC(=S)OC(Cc1ccc(C)cc1)c1cc2sc3cc4c(cc3c2s1)sc1cc(C(Cc2ccc(C)cc2)OC(=S)SC)sc14` (centres unmarked) [Example Compound 23]: the solubility in solvent entry in data set [2] (solvent such as THF, toluene, chloroform, xylene, or dichloromethane) is given as “easily dissolved”. Regarding `O=C(CCl)OC(Cc1ccccc1)c1cc2sc3cc4c(cc3c2s1)sc1cc(C(Cc2ccccc2)OC(=O)CCl)sc14` (centres unmarked) [Example Compound 14], the “mass reduction, found value” in data set [1] was 26.6%. In data set [2] (setting [3]), the solubility in solvent result is reported as “easily dissolved”. Consider `CCCCCOC(=O)OC(Cc1ccccc1)c1cc2sc3cc4c(cc3c2s1)sc1cc(C(Cc2ccccc2)OC(=O)OCCCCC)sc14` (centres unmarked) [Example Compound 11], for which the “mass reduction, found value” in data set [1] is given as 33.3%. Besides, the solubility in solvent entry in data set [2] (setting [3]) is recorded as “easily dissolved”. Regarding `O=C(CC(F)(F)F)OC(Cc1ccccc1)c1cc2sc3cc4c(cc3c2s1)sc1cc(C(Cc2ccccc2)OC(=O)CC(F)(F)F)sc14` (centres unmarked) [Example Compound 3], the “mass reduction, found value” in data set [1] is on record as 32.6%. `CCCCCCc1ccc(CC(OC(=O)C(C)=O)c2cc3sc4cc5c(cc4c3s2)sc2cc(C(Cc3ccc(CCCCCC)cc3)OC(=O)C(C)=O)sc25)cc1` (centres unmarked) [Example Compound 16]: the “mass reduction, found value” in data set [1] amounted to 21.1%. In data set [2] (setting [3]), the solubility in solvent result is “easily dissolved”. For the molecule `Cc1ccc(-c2ccc(CC(O)c3cc4sc5cc6c(cc5c4s3)sc3cc(C(O)Cc4ccc(-c5ccc(C)cc5)cc4)sc36)cc2)cc1` (centres unmarked) [Example Compound 17], the “mass reduction, found value” in data set [1] was 4.0%. Also, the solubility in solvent result in data set [2] (solvent such as THF or toluene) is recorded as “easily dissolved”.

Turning to `CCOC(=O)CC(=O)OC(Cc1ccccc1)c1cc2sc3cc4c(cc3c2s1)sc1cc(C(Cc2ccccc2)OC(=O)CC(=O)OCC)sc14` (centres unmarked) [Example Compound 13], in data set [1], the “mass reduction, found value” is reported as 35.5%. The solubility in solvent entry in data set [2] (setting [3]) is “easily dissolved”. For `CCCCCC(=O)OC(Cc1ccc(C)cc1)c1cc2sc3cc4c(cc3c2s1)sc1cc(C(Cc2ccc(C)cc2)OC(=O)CCCCC)sc14` (centres unmarked) [Example Compound 4], in data set [1], the “mass reduction, found value” was determined as 30.0%. The same measure, in the same setting: to `CC(=O)OC(Cc1ccc(C)cc1)c1cc2sc3cc4c(cc3c2s1)sc1cc(C(Cc2ccc(C)cc2)OC(C)=O)sc14` (centres unmarked) [Example Compound 5] belongs 17.9%. With `CC(=O)CC(=O)OC(Cc1ccccc1)c1cc2sc3cc4c(cc3c2s1)sc1cc(C(Cc2ccccc2)OC(=O)CC(C)=O)sc14` (centres unmarked) [Example Compound 24], in data set [1], the “mass reduction, found value” is 25.7%. In addition, the solubility in solvent result in data set [2] (setting [3]) is “easily dissolved”. In the same order, the values of `O=C(CCC(F)(F)F)OC(Cc1ccccc1)c1cc2sc3cc4c(cc3c2s1)sc1cc(C(Cc2ccccc2)OC(=O)CCC(F)(F)F)sc14` (centres unmarked) [Example Compound 15] are 34.3% and “easily dissolved”. As for `CC(C)(C)C(=O)OC(Cc1ccccc1)c1cc2sc3cc4c(cc3c2s1)sc1cc(C(Cc2ccccc2)OC(=O)C(C)(C)C)sc14` (centres unmarked) [Example Compound 1], in data set [1], the “mass reduction, found value” is on record as 29.7%. Besides, the solubility in solvent result in data set [2] (setting [3]) is “easily dissolved”. In the case of `COC(Cc1ccccc1)c1cc2sc3cc4c(cc3c2s1)sc1cc(C(Cc2ccccc2)OC)sc14` (centres unmarked) [Example Compound 12], the “mass reduction, found value” in data set [1] amounted to 13.9%. Also, the solubility in solvent result in data set [2] (setting [3]) is recorded as “easily dissolved”.
